Data taken from the CheMixHub viscosity set.

Assay: xn = mol fraction of the nth substance listed

CC(C)NC(C)C + CCCCO
viscosity [mPa·s], 100 kPa
Conditions	298.15 K	303.15 K	308.15 K
x1 = 0.0499	2.316	2.061	1.793
x1 = 0.1095	2.056	1.834	1.609
x1 = 0.1542	1.88	1.688	1.483
x1 = 0.2062	1.699	1.529	1.353
x1 = 0.25	1.552	1.405	1.251
x1 = 0.2969	1.414	1.285	1.149
x1 = 0.4059	1.129	1.037	0.94
x1 = 0.5062	0.916	0.849	0.777
x1 = 0.6009	0.755	0.707	0.656
x1 = 0.7043	0.62	0.583	0.548
x1 = 0.8059	0.516	0.489	0.467
x1 = 0.8543	0.477	0.451	0.432
x1 = 0.8987	0.444	0.42	0.402
x1 = 0.9489	0.408	0.391	0.374

CC(C)NC(C)C + CCCCOCCO
viscosity [mPa·s], 100 kPa
Conditions	298.15 K	303.15 K	308.15 K
x2 = 0.0501	0.42	0.4	0.38
x2 = 0.1005	0.47	0.44	0.42
x2 = 0.15	0.54	0.5	0.47
x2 = 0.2024	0.63	0.58	0.54
x2 = 0.2999	0.8	0.73	0.68
x2 = 0.3999	1.06	0.95	0.89
x2 = 0.5001	1.38	1.23	1.14
x2 = 0.6002	1.77	1.56	1.42
x2 = 0.6997	2.14	1.85	1.68
x2 = 0.7998	2.48	2.14	1.95
x2 = 0.8999	2.74	2.39	2.14
x2 = 0.9499	2.82	2.47	2.21

CCC(=O)c1ccccc1 + CCCCOCCO
viscosity [mPa·s], 101 kPa
Conditions	x1 = 0.0996	x1 = 0.1994	x1 = 0.2992	x1 = 0.399	x1 = 0.499	x1 = 0.599	x1 = 0.6992	x1 = 0.7994	x1 = 0.8996
303.15 K	2.333	2.24	2.148	2.056	1.964	1.873	1.782	1.692	1.602
308.15 K	2.192	2.109	2.027	1.946	1.865	1.784	1.704	1.624	1.545
313.15 K	2.044	1.972	1.901	1.831	1.762	1.692	1.622	1.554	1.486
318.15 K	1.863	1.805	1.749	1.694	1.639	1.584	1.53	1.476	1.424

CC(C)(C)C(=O)O + CCCN(CCC)CCC
viscosity [mPa·s], 101 kPa
Conditions	293.15 K	298.15 K	303.15 K	308.15 K	313.15 K	318.15 K	323.15 K
x1 = 0.1	1.239	1.113	1.09	1.007	0.961	–	–
x1 = 0.2	1.593	1.416	1.371	1.265	1.163	1.088	1.017
x1 = 0.3	1.998	1.897	1.631	1.619	1.474	1.375	1.285
x1 = 0.4	3.304	2.795	2.479	2.325	2.14	1.94	1.79
x1 = 0.5	5.525	4.857	3.946	3.56	3.069	2.62	2.72
x1 = 0.6	14.34	11.43	9.15	7.47	6.17	5	4.15
x1 = 0.7	41.75	29.64	21.72	16.62	12.77	10.24	8.33
x1 = 0.725	62.84	43.6	31.12	22.68	17.62	14.04	11.21
x1 = 0.75	69.2	52.11	39.98	28.77	21.17	17.53	13.24
x1 = 0.8	54.33	40.03	28.38	21.17	16.84	13.12	10.81
x1 = 0.9	15.35	11.96	9.46	7.88	6.57	5.51	4.73

CCOC(=O)CC(C)=O + CCCO
viscosity [mPa·s], 100 kPa
Conditions	x1 = 0.0644	x1 = 0.1297	x1 = 0.2035	x1 = 0.2808	x1 = 0.3716	x1 = 0.4706	x1 = 0.5808	x1 = 0.7083	x1 = 0.8379
293.15 K	1.907	1.663	1.448	1.344	1.321	1.346	1.395	1.46	1.563
298.15 K	1.675	1.515	1.404	1.32	1.279	1.281	1.295	1.336	1.413

OCCO + CCCO
Conditions	viscosity [mPa·s]
298.15 K, 101 kPa, x1 = 0.442	4.972
298.15 K, 101.33 kPa, x1 = 0.0111	2.005
298.15 K, 101.33 kPa, x1 = 0.0207	2.055
298.15 K, 101.33 kPa, x1 = 0.0321	2.115
298.15 K, 101.33 kPa, x1 = 0.0482	2.198
298.15 K, 101.33 kPa, x1 = 0.0722	2.331
298.15 K, 101.33 kPa, x1 = 0.0979	2.467
298.15 K, 101.33 kPa, x1 = 0.1442	2.723
298.15 K, 101.33 kPa, x1 = 0.1912	3.012
298.15 K, 101.33 kPa, x1 = 0.2372	3.32
298.15 K, 101.33 kPa, x1 = 0.2938	3.751
298.15 K, 101.33 kPa, x1 = 0.345	4.192
298.15 K, 101.33 kPa, x1 = 0.3886	4.617
298.15 K, 101.33 kPa, x1 = 0.4295	5.053
298.15 K, 101.33 kPa, x1 = 0.4681	5.512
298.15 K, 101.33 kPa, x1 = 0.5096	6.052
298.15 K, 101.33 kPa, x1 = 0.5452	6.565
298.15 K, 101.33 kPa, x1 = 0.5843	7.175
298.15 K, 101.33 kPa, x1 = 0.6533	8.397
298.15 K, 101.33 kPa, x1 = 0.6993	9.322
298.15 K, 101.33 kPa, x1 = 0.7522	10.5
298.15 K, 101.33 kPa, x1 = 0.7998	11.68
298.15 K, 101.33 kPa, x1 = 0.84	12.75
298.15 K, 101.33 kPa, x1 = 0.8875	14.13
298.15 K, 101.33 kPa, x1 = 0.918	15.08
298.15 K, 101.33 kPa, x1 = 0.9609	16.5
298.15 K, 101.33 kPa, x2 = 0.0188	17.2
308.15 K, 101 kPa, x1 = 0.442	3.67
318.15 K, 101 kPa, x1 = 0.442	2.755

C=CCN=C=S + CCN(CC)c1ccccc1
303.15 K, 101 kPa
Conditions	viscosity [mPa·s]
x1 = 0.25	1.248
x1 = 0.5	1.007
x1 = 0.7	0.857
x1 = 0.75	0.822
x1 = 0.8	0.785

C=CCN=C=S + CCNc1ccccc1
viscosity [mPa·s], 101 kPa
Conditions	x1 = 0.2366	x1 = 0.4021	x1 = 0.4673	x1 = 0.5	x1 = 0.5346	x1 = 0.6032	x1 = 0.7385
298.15 K	5.955	18.81	37.55	48.24	29.45	7.747	2.277
323.15 K	2.83	6.28	9.92	11.98	8.399	3.234	1.313

OCCO + CCO
viscosity [mPa·s], 101 kPa
Conditions	x1 = 0.1	x1 = 0.2	x1 = 0.3	x1 = 0.3778	x1 = 0.4	x1 = 0.5	x1 = 0.6	x1 = 0.7	x1 = 0.8	x1 = 0.9
298.15 K	1.439	1.908	2.546	3.567	3.382	4.487	5.986	7.908	10.41	13.61
308.15 K	1.05	1.524	1.991	2.688	2.581	3.346	4.363	5.645	7.295	9.374
318.15 K	0.9744	1.253	1.604	2.13	2.053	2.598	3.325	4.216	5.306	6.652

S=C=S + CCO
298.15 K, 101 kPa
Conditions	viscosity [mPa·s]
x1 = 0.1096	0.9448
x1 = 0.1264	0.9535
x1 = 0.1726	0.9065
x1 = 0.2241	0.8407
x1 = 0.2832	0.7621
x1 = 0.4039	0.6659
x1 = 0.5848	0.5669
x1 = 0.6266	0.5466
x1 = 0.7329	0.4926

CCC(=O)c1ccccc1 + CCOC(C)=O
viscosity [mPa·s], 101 kPa
Conditions	x1 = 0.0764	x1 = 0.1569	x1 = 0.2419	x1 = 0.3317	x1 = 0.4268	x1 = 0.5276	x1 = 0.6347	x1 = 0.7486	x1 = 0.8701
303.15 K	0.4784	0.5399	0.6088	0.6897	0.7853	0.8977	1.034	1.199	1.398
308.15 K	0.4618	0.519	0.5844	0.6608	0.7493	0.8602	0.9953	1.153	1.333
313.15 K	0.4426	0.4991	0.5564	0.6277	0.7199	0.8175	0.9454	1.095	1.261

S=C=S + CCOC(C)=O
298.15 K, 101 kPa
Conditions	viscosity [mPa·s]
x2 = 0.1445	0.367
x2 = 0.3581	0.389
x2 = 0.6307	0.416

S=C=S + CCOCC
298.15 K, 101 kPa
Conditions	viscosity [mPa·s]
x2 = 0.1341	0.338
x2 = 0.3497	0.306
x2 = 0.6338	0.269
